This is an account of results in patent US12661410B2, “Compounds for targeted degradation of RET” (C4 Therapeutics, Inc., priority 2020, dated 2026).

As a reminder, the Emax is the size of the effect at its maximum, as opposed to the concentration needed. For orientation: DC50 means the concentration at which degradation of the target reaches its halfway point.

Changes are numbered by the printed parent chain. Where two headings read alike, the source gives them in different places.

For assay [1], the target named is T1, RET(KD: 658-1114 G810R) (Homo sapiens, UniProt P07949, G810R).
T1 construct: 658-1114; expressed in transfected cells; host or cells: 293T.165 (293T cells, generated in-house)
T1 sequence (P07949 658-1114 G810R): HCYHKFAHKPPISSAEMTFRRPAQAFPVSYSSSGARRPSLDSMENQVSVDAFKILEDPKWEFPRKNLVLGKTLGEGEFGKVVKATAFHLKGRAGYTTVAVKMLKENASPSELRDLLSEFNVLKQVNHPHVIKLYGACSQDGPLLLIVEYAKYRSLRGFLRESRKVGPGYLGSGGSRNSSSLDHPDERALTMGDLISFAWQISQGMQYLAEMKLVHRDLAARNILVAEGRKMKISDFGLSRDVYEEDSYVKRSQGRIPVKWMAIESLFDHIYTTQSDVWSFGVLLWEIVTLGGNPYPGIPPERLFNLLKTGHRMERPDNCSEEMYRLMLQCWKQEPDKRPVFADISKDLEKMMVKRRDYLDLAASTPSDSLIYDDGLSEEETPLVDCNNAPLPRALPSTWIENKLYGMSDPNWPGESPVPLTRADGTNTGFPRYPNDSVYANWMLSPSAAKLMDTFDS
The assay can be described thus: HiBiT-Degradation, RET G810R degradation assay (Nano-Glo HiBiT Lytic), 293T.165 cells. It counts as cell-based. The following applies: for Emax / DC50: 6.0 hours. An excerpt: (§1) Dulbecco's modified Eagle medium (DMEM) no-phenol red media and fetal bovine serum (FBS) were purchased from Gibco (Grand Island, NY, USA). Cell lines ectopically expressing wild-type or G810R RET kinase domain fused with a HiBiT tag were generated in-house (293T. 144 and 293T. 165, respectively). Cell culture flasks and 384-well microplates were acquired from VWR (Radnor, PA, USA). The Nano-Glo® HiBiT Lytic Assay System was purchased from Promega (Madison, WI, USA).
(§2) RET wild-type (WT) and G810R degradation were assessed using the Nano-Glo® HiBiT Lytic assay (Promega, Medison, WI, USA). To determine the effect of degraders on protein levels, cells were plated in 384-well plates and treated with compounds of interest in duplicates for 6 hours using an 11-point half-log dilution series, with the highest dose set at 10 μM. Cell lysis and addition of the Nano-Glo® HiBiT Lytic Assay reagents was then performed. Luminescence signal was measured using an EnVision™ Multimode plate reader (Perkin Elmer, Santa Clara, CA, USA). The half-maximal degradation concentration (DC50) and % remaining protein (Emax) was then derived from the dose-response curves.

Assay [2] has as its target T2, RET (658-1114) (Homo sapiens, UniProt P07949).
T2 construct: 658-1114; expressed in transfected cells; host or cells: 293T.144 (293T cells, generated in-house)
T2 sequence (P07949 658-1114): T1 sequence (P07949 658-1114 G810R) with R153G
Briefly: HiBiT-Degradation, RET wild-type degradation assay (Nano-Glo HiBiT Lytic), 293T.144 cells. It counts as cell-based. The following applies: for DC50 / Emax: 6.0 hours.
Excerpt: as §1, §2
For orientation: HiBiT is a short tag that completes a luciferase, so light tracks the accessible tagged protein.

Setting [3] is: % remaining protein, read-out: 293T.165 RET(KD: 658-1114 G810R) 6.0 hours (Emax).
Where [4] appears, read: half-maximal degradation concentration, read-out: 293T.165 RET(KD: 658-1114 G810R) 6.0 hours (DC50).
[5] abbreviates: HiBiT-Degradation, read-out: 293T.165 RET(KD: 658-1114 G810R) 6.0 hours (DC50).
Setting [6] is: HiBiT-Degradation, read-out: 293T.144 RET (658-1114) 6.0 hours (DC50).
Where [7] appears, read: HiBiT-Degradation, read-out: 293T.144 RET (658-1114) 6.0 hours (Emax).
[8] abbreviates: RET G810R, read-out: HiBiT-Degradation 293T.165 RET(KD: 658-1114 G810R) 6.0 hours (DC50).
[9] abbreviates: RET G810R, read-out: HiBiT-Degradation 293T.165 RET(KD: 658-1114 G810R) 6.0 hours (Emax).
[10] abbreviates: RET wild-type, read-out: HiBiT-Degradation 293T.144 RET (658-1114) 6.0 hours (DC50).
Where [11] appears, read: RET wild-type, read-out: HiBiT-Degradation 293T.144 RET (658-1114) 6.0 hours (Emax).
[12] abbreviates: % remaining protein, read-out: 293T.144 RET (658-1114) 6.0 hours (Emax).
The mark [13] stands for this setting: half-maximal degradation concentration, read-out: 293T.144 RET (658-1114) 6.0 hours (DC50).

Turning to `N#Cc1cnn2cc(-c3ccc(N4CCN(C(=O)CN5CCC(c6ccc(NC7CCC(=O)NC7=O)cc6F)CC5)CC4)cc3)nc(-c3ccc(N4CC5CC(C4)N5Cc4ccccc4)nc3)c12` (stereo not drawn) [Compound 54, 4-[6-(6-benzyl-3,6-diazabicyclo[3.1.1]heptan-3-yl)-3-pyridyl]-6-[4-[4-[2-[4-[4-[(2,6-dioxo-3-piperidyl)amino]-2-fluoro-phenyl]-1-piperidyl]acetyl]piperazin-1-yl]phenyl]pyrazolo[1,5-a]pyrazine-3-carbonitrile], the Emax in assay [1] (setting [3]) and in assay [2] (setting [7]) was under 30% throughout. In addition, the 50% degradation concentration (DC50) was under 100 nM in assay [1] (setting [4]), under 100 nM in assay [1] (setting [5]) and under 50 nM in assay [2] (setting [6]). The “293T.165 RET(KD: 658-1114 G810R) 6.0 hours (Emax)” value in assay [1] (HiBiT-Degradation) is reported as “++++ (< 30% = ++++)”. Further, in assay [1] (HiBiT-Degradation), the “293T.165 RET(KD: 658-1114 G810R) 6.0 hours (IP) [nM]” value is reported as “++++ (< 50 nM = ++++)”. The “293T.144 RET (658-1114) 6.0 hours (IP) [nM]” value in assay [2] (HiBiT-Degradation) was “++++ (< 50 nM = ++++)”.

Take `CCC1(C(=O)NC(C)C)CCN(c2ccc(-c3nc(-c4cnn(C5CCN(C(=O)CC6(O)CCN(c7ccc(NC8CCC(=O)NC8=O)c(F)c7)CC6)CC5)c4)cn4ncc(C#N)c34)cn2)CC1` (stereo not drawn) [Compound 69, 1-[5-[3-cyano-6-[1-[1-[2-[1-[4-[(2,6-dioxo-3-piperidyl)amino]-3-fluoro-phenyl]-4-hydroxy-4-piperidyl]acetyl]-4-piperidyl]pyrazol-4-yl]pyrazolo[1,5-a]pyrazin-4-yl]-2-pyridyl]-4-ethyl-N-isopropyl-piperidine-4-carboxamide]: the results for the maximal effect (Emax) in assay [1] (setting [3]), in assay [1] (setting [9]) and in assay [2] (setting [11]) were under 50%, under 50% and under 30%, respectively. The values for the DC50 in assay [1] (setting [4]), in assay [1] (setting [8]) and in assay [2] (setting [10]) were under 100 nM, under 100 nM and under 50 nM, respectively. In addition, the “HiBiT-Degradation 293T.165 RET(KD: 658-1114 G810R) 6.0 hours (IP) [nM]” value in assay [1] (RET G810R) is recorded as “++++ (< 50 nM = ++++)”. For the same compound, in assay [2] (RET wild-type), the “HiBiT-Degradation 293T.144 RET (658-1114) 6.0 hours (IP) [nM]” value (“HiBiT-Degradation 293T.144 RET” below) is “++++ (< 50 nM = ++++)”.

For `COc1cc(N2CCN([C@H]3CC[C@H](n4cc(-c5cn6ncc(C#N)c6c(-c6ccc(N7C[C@H]8COC[C@@H](C7)N8CC7CCOCC7)nc6)n5)cn4)CC3)CC2)c(F)cc1NC1CCC(=O)NC1=O` (single isomer, unassigned) [Compound 166], the “293T.165 RET(KD: 658-1114 G810R) 6.0 hours (IP) [nM]” value in assay [1] was “++++ (<50 nM = ++++)”. The Emax in assay [1] (setting [3]) and in assay [2] (setting [12]) was under 30% throughout. Further, the 50% degradation concentration (DC50) in assay [1] (setting [4]) was under 100 nM; in assay [2] (setting [13]) it was under 50 nM. Further, in assay [2], the “293T.144 RET (658-1114) 6.0 hours (IP) [nM]” value is given as “++++ (<50 nM = ++++)”.

Turning to `CC(=O)N1CCN(c2ccc(-c3cc(-c4cnn(C5CCN(C(=O)CN6CCC(c7ccc(NC8CCC(=O)NC8=O)cc7)CC6)CC5)c4)cn4ncc(C#N)c34)cn2)CC1` (stereo not drawn) [Compound 42, 4-[6-(4-acetylpiperazin-1-yl)-3-pyridyl]-6-[1-[1-[2-[4-[4-[(2,6-dioxo-3-piperidyl)amino]phenyl]-1-piperidyl]acetyl]-4-piperidyl]pyrazol-4-yl]pyrazolo[1,5-a]pyridine-3-carbonitrile], the maximal response (Emax) was under 50% in assay [1] (setting [3]) and under 30% in assay [2] (setting [7]). In addition, the DC50 is under 100 nM in assay [1] (setting [4]), under 100 nM in assay [1] (setting [5]) and under 50 nM in assay [2] (setting [6]). Moreover, in assay [1] (HiBiT-Degradation), the “293T.165 RET(KD: 658-1114 G810R) 6.0 hours (Emax)” value is listed as “+++ (<50% = +++)”. In addition, in assay [1] (HiBiT-Degradation), the “293T.165 RET(KD: 658-1114 G810R) 6.0 hours (IP) [nM]” value was “++++ (< 50 nM = ++++)”. Also, in assay [2] (HiBiT-Degradation), the “293T.144 RET (658-1114) 6.0 hours (IP) [nM]” value was “++++ (< 50 nM = ++++)”.

As for `CCC1(C(=O)NC2CCC2)CCN(c2ccc(-c3nc(-c4cnn([C@H]5CC[C@H](N6CCN(c7c(F)cc(N[C@@H]8CCC(=O)NC8=O)cc7F)CC6)CC5)c4)cn4ncc(C#N)c34)cn2)CC1` (single isomer, unassigned) [Compound 137], the “293T.165 RET(KD: 658-1114 G810R) 6.0 hours (IP) [nM]” value in assay [1] is “++++ (<50 nM = ++++)”. The maximum response (Emax) in assay [1] (setting [3]) and in assay [2] (setting [12]) was under 30% throughout. Also, the half-maximal degradation concentration (DC50) in assay [1] (setting [4]) and in assay [2] (setting [13]) was under 50 nM each time. Besides, the “293T.144 RET (658-1114) 6.0 hours (IP) [nM]” value in assay [2] is “++++ (<50 nM = ++++)”.

In the case of `COCC1(Cc2ccccn2)CCN(c2ccc(-c3nc(-c4cnn(C5CCN(C(=O)CN6CCC(c7ccc(NC8CCC(=O)NC8=O)cc7F)CC6)CC5)c4)cn4ncc(C#N)c34)cn2)CC1` (stereo not drawn) [Compound 78, 6-[1-[1-[2-[4-[4-[(2,6-dioxo-3-piperidyl)amino]-2-fluoro-phenyl]-1-piperidyl]acetyl]-4-piperidyl]pyrazol-4-yl]-4-[6-[4-(methoxymethyl)-4-(2-pyridylmethyl)-1-piperidyl]-3-pyridyl]pyrazolo[1,5-a]pyrazine-3-carbonitrile], the Emax in assay [1] (setting [3]), in assay [1] (setting [9]) and in assay [2] (setting [11]) was under 30% each time. The DC50 in assay [1] (setting [4]) is under 100 nM; in assay [1] (setting [8]), under 100 nM; in assay [2] (setting [10]), under 50 nM. Further, in assay [1] (RET G810R), the “HiBiT-Degradation 293T.165 RET(KD: 658-1114 G810R) 6.0 hours (IP) [nM]” value is reported as “++++ (< 50 nM = ++++)”. The “HiBiT-Degradation 293T.144 RET” value in assay [2] (RET wild-type) was “++++ (< 50 nM = ++++)”.

In the case of `N#Cc1cnn2cc(-c3cnn(C4CC5(C4)CN(C(=O)CN4CCC(c6ccc(NC7CCC(=O)NC7=O)cc6F)CC4)C5)c3)cc(-c3ccc(N4CCN(Cc5ccccn5)CC4)nc3)c12` (stereo not drawn) [Compound 76, 6-[1-[2-[2-[4-[4-[(2,6-dioxo-3-piperidyl)amino]-2-fluoro-phenyl]-1-piperidyl]acetyl]-2-azaspiro[3.3]heptan-6-yl]pyrazol-4-yl]-4-[6-[4-(2-pyridylmethyl)piperazin-1-yl]-3-pyridyl]pyrazolo[1,5-a]pyridine-3-carbonitrile], the maximal effect (Emax) in assay [1] (setting [3]), in assay [1] (setting [9]) and in assay [2] (setting [11]) was under 30% throughout. The 50% degradation concentration (DC50) in assay [1] (setting [4]) is under 100 nM; in assay [1] (setting [8]), under 100 nM; in assay [2] (setting [10]), under 50 nM. The “HiBiT-Degradation 293T.165 RET(KD: 658-1114 G810R) 6.0 hours (IP) [nM]” value in assay [1] (RET G810R) was “+++ (<100 nM = +++)”. Besides, the “HiBiT-Degradation 293T.144 RET” value in assay [2] (RET wild-type) is “++++ (< 50 nM = ++++)”.

`N#Cc1cnn2cc(-c3ccc(N4CCN(C(=O)CC5(O)CCN(c6ccc(NC7CCC(=O)NC7=O)cc6F)CC5)CC4)cc3)cc(-c3ccc(N4CCN(C(=O)Cc5ccc(F)cn5)CC4)nc3)c12` (stereo not drawn) [Compound 26, 6-[4-[4-[2-[1-[4-[(2,6-Dioxo-3-piperidyl)amino]-2-fluoro-phenyl]-4-hydroxy-4-piperidyl]acetyl]piperazin-1-yl]phenyl]-4-[6-[4-[2-(5-fluoro-2-pyridyl)acetyl]piperazin-1-yl]-3-pyridyl]pyrazolo[1,5-a]pyridine-3-carbonitrile]: the maximal response (Emax) is under 50% in assay [1] (setting [3]) and under 30% in assay [2] (setting [7]). The DC50 in assay [1] (setting [4]), in assay [1] (setting [5]) and in assay [2] (setting [6]) was under 50 nM in each case. In assay [1] (HiBiT-Degradation), the “293T.165 RET(KD: 658-1114 G810R) 6.0 hours (Emax)” value is “+++ (<50% = +++)”. For the same compound, in assay [1] (HiBiT-Degradation), the “293T.165 RET(KD: 658-1114 G810R) 6.0 hours (IP) [nM]” value is “++++ (< 50 nM = ++++)”. For the same compound, the “293T.144 RET (658-1114) 6.0 hours (IP) [nM]” value in assay [2] (HiBiT-Degradation) is given as “++++ (< 50 nM = ++++)”.
